Measurements: ChEMBL document CHEMBL1129469, “Nonpeptide angiotensin II receptor antagonists: the next generation in antihypertensive therapy” (J Med Chem, 1996)
Positions count from the first letter of the chain named. Values belong to the compound of their own block, whether it stands above or below them.

Key:
[1] = species: Rattus norvegicus; test: Oral effective dose required for lowering blood pressure in renal hypertensive rats (RHR); format: functional
[2] = tested on: Rattus norvegicus; test: Intravenous effective dose required for lowering blood pressure in renal hypertensive rats (RHR); format: functional
[3] = target: T1, Type-1 angiotensin II receptor (Homo sapiens, UniProt P30556); test: (§1) Inhibition of Angiotensin II receptor, type 1
T1 sequence (P30556 whole entry): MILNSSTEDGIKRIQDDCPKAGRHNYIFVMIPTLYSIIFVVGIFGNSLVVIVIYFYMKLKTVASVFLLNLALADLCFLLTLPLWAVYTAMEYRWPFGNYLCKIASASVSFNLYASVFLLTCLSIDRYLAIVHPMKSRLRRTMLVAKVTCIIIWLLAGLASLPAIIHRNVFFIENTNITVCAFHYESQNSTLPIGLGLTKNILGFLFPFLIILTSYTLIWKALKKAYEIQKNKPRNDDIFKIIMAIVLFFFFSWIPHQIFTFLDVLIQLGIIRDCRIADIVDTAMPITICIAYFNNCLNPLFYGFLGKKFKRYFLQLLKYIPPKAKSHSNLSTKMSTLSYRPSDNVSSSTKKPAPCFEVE

[4] = target: T2, Type-2 angiotensin II receptor (Homo sapiens, UniProt P50052); test: Inhibition of Angiotensin II receptor, type 2
T2 sequence (P50052 whole entry): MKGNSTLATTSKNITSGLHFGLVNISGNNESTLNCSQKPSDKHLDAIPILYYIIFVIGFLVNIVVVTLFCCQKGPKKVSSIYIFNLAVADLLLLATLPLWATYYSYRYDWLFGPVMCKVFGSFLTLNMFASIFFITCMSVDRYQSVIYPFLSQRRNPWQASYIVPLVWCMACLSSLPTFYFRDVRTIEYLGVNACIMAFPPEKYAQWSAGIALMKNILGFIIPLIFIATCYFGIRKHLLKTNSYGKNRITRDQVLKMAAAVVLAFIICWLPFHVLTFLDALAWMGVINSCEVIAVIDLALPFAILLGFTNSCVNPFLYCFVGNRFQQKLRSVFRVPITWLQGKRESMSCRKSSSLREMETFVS

[5] = target: T3, Angiotensin II receptor (AT-1) type-1 (Rattus norvegicus, UniProt P29089+P25095); test: Inhibitory activity against Angiotensin II receptor, type 1 in rat aortic membranes; format: cell membranes
T3 sequence (P29089 whole entry): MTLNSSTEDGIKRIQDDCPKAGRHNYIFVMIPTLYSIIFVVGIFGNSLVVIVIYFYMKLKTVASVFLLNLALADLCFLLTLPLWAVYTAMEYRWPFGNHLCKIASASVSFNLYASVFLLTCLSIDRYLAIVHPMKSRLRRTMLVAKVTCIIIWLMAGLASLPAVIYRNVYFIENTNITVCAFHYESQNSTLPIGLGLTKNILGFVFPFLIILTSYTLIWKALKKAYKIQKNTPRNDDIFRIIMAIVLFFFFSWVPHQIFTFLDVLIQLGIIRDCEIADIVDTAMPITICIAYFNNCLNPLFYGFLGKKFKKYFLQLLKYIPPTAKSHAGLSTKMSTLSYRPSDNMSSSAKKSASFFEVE
T3 sequence (P25095 whole entry): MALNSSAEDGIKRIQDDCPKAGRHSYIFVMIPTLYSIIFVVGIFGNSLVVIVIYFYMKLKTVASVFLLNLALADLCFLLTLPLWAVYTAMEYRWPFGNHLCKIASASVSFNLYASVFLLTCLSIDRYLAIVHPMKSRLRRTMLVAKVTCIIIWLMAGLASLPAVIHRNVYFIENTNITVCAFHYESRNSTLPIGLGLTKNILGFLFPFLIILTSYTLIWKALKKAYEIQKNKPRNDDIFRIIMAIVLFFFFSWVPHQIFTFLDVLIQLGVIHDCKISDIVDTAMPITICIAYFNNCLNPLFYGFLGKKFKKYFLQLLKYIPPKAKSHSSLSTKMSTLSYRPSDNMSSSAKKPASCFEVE

[6] = species: Oryctolagus cuniculus; test: Compound was tested for its antagonistic activity against angiotensin II-induced contractions in rabbit aorta; format: functional
[7] = target: T3, Angiotensin II receptor (AT-1) type-1; test: In vitro antagonistic potency against Angiotensin II receptor, type 1 in rat liver using [125I]-Sar1-Ile8-Ang II as radioligand; format: functional, tissue-based
[8] = Oral bioavailability in dog; format: ADME, organism-based, Canis lupus familiaris; conditions: in vivo
[9] = Oral bioavailability in rat; format: ADME, organism-based; conditions: in vivo
[10] = target: T3, Angiotensin II receptor (AT-1) type-1; test: Inhibitory activity against Angiotensin II receptor type 1 in rat adrenal membrane; format: cell membranes
[11] = target: T4, Type-1 angiotensin II receptor (Oryctolagus cuniculus, UniProt P34976); test: as §1
T4 sequence (P34976 whole entry): T1 sequence (P30556 whole entry) with I2M, V49A, I254V, I270V, R272H, R311K, T349S, A353V

[12] = target: T5, Type-2 angiotensin II receptor (Rattus norvegicus, UniProt P35351); test: Inhibitory activity at Angiotensin II type 2 receptor.
T5 sequence (P35351 whole entry): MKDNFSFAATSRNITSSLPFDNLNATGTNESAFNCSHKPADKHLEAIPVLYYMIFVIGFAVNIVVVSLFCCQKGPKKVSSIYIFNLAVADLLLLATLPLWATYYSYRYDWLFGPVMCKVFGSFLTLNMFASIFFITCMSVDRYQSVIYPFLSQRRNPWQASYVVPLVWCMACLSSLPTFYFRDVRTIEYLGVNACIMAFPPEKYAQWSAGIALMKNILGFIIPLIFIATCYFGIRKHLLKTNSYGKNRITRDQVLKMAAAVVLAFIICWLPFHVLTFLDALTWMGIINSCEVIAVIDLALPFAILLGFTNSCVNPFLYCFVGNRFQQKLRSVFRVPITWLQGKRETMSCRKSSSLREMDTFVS

[13] = target: T3, Angiotensin II receptor (AT-1) type-1; test: In vitro antagonistic potency against Angiotensin II receptor, type 1 in rat liver; format: functional, tissue-based

SMILES: Cc1nc(C)c2c(n1)N(Cc1ccc(-c3ccccc3-c3nnn[nH]3)cc1)C(=O)CC2 [TASOSARTAN]
ED60 [1]: 0.58 mg/kg

IC50 [3]: 570 nM
IC50 [4]: 0.69 nM
SMILES: CCCc1nc(CC)c(C(=O)OCc2ccccc2C(=O)c2ccccc2)n1Cc1ccc(-c2ccccc2S(=O)(=O)NC(=O)OCCC(C)C)cc1F
ED30 [2]: 0.05 mg/kg
ED30 [1]: 0.9 mg/kg

IC50 [5]: 52 nM
SMILES: Cc1ccnc2c1nc(C1CC1)n2Cc1ccc(-c2ccccc2C(=O)O)cc1

IC50 [3]: 1 nM
IC50 [4]: 1 nM
SMILES: CCCc1nc(CC)c(C(=O)OC)n1Cc1ccc(-c2ccccc2S(=O)(=O)NC(=O)OCCC(C)C)cc1F
ED50 [2]: 0.48 mg/kg
ED50 [1]: 0.67 mg/kg

SMILES: CCc1nc2c(C)cc(CO)nc2n1Cc1ccc2oc(-c3ccccc3NS(=O)(=O)C(F)(F)F)c(Br)c2c1
pKB [6]: 8.6

Log Ki [7]: -9.3
SMILES: CCc1nc(C2CC2)c(C(N)=O)n1Cc1ccc2oc(-c3ccccc3NS(=O)(=O)C(F)(F)F)c(Br)c2c1
pKB [6]: 9

bioavailability [8]: 17%
bioavailability [9]: 23%
SMILES: CCc1nc2ccc(NC(=O)N(C)C(C)C)cc2c(=O)n1Cc1ccc(-c2ccccc2S(=O)(=O)NC(=O)OCCC2CC2)cc1F

IC50 [3]: 1.4 nM
SMILES: CCCCOC(=O)NS(=O)(=O)c1ccc(Cc2cccc(OC)c2)cc1-c1ccc(Cn2c(CC)nc3c(C)cc(C)nc32)cc1

SMILES: CCCCc1nc(Cl)c(CC(=O)O)n1Cc1ccc(C(=O)O)cc1
ED30 [2]: 10 mg/kg

bioavailability [8]: 13%
IC50 [10]: 6 nM
bioavailability [9]: 8%
SMILES: CCCc1nc(CC)c(C(=O)O)n1Cc1ccc(-c2ccccc2-c2nn[nH]n2)cc1
ED30 [2]: 0.005 mg/kg
ED30 [1]: 0.03 mg/kg

Log Ki [7]: -9
bioavailability [9]: 3%
SMILES: CCCCc1nc(Cl)c(C(=O)O)n1Cc1ccc2oc(-c3ccccc3-c3nnn[nH]3)c(Br)c2c1 [ZOLASARTAN]
pKB [6]: 9.8

IC50 [11]: 5 nM
IC50 [12]: 130 nM
SMILES: CCc1nc2c(C)cc(C)nc2n1Cc1ccc2c(ccn2C(=O)c2cccc(-c3nn[nH]n3)c2)c1

IC50 [3]: 0.3 nM
IC50 [4]: 775 nM
SMILES: CCCNC(=O)NS(=O)(=O)c1ccccc1-c1ccc(Cn2c(CCC)nc(SC)c2C(=O)O)cc1

bioavailability [9]: 12%
SMILES: CCCCc1nc(Cl)c(C(=O)O)n1Cc1ccc(-c2ccccc2-c2nn[nH]n2)cc1 [CARBOXYLIC ACID METABOLITE]
ED30 [2]: 0.04 mg/kg
ED30 [1]: 0.66 mg/kg

IC50 [5]: 0.8 nM
SMILES: CCCc1nc2c(n1Cc1ccc(-c3ccccc3-c3nnn[nH]3)cc1)C(=O)CCCC2 [PRATOSARTAN]

IC50 [3]: 1.5 nM
IC50 [4]: 6.1 nM
SMILES: CCCCOC(=O)NS(=O)(=O)c1ccc(CCC)cc1-c1ccc(Cn2c(CC)nc3c(C)cc(C)nc32)cc1

Ki [13]: 2.9 nM
F [9]: 11%
SMILES: O=C(O)c1c(Oc2ccc(-c3ccccc3-c3nn[nH]n3)cc2)c(C2CC2)nc2ccccc12
Kb [6]: 0.061 nM

IC50 [10]: 2.1 nM
SMILES: CCCc1nc(CC)c(C=O)n1Cc1ccc(-c2ccccc2-c2nn[nH]n2)cc1
ED30 [1]: 0.027 mg/kg

IC50 [10]: 3.1 nM
SMILES: CCCc1nc(C(F)(F)C(F)(F)F)c(C(=O)O)n1Cc1ccc(-c2ccccc2-c2nn[nH]n2)cc1
ED30 [2]: 0.02 mg/kg
ED30 [1]: 0.21 mg/kg

IC50 [3]: 0.05 nM
IC50 [4]: 18 nM
SMILES: CCc1nc2c(C)cc(C)nc2n1Cc1ccc(-c2ccccc2S(=O)(=O)NC(=O)C(c2ccccc2)c2ccccc2)cc1
